Measured values as given in US20190060261A1, “ACTIVE COMBINATIONS OF PERILLIC ACID AND ACTIVITY ENHANCING SUBSTANCES” (B.R.A.I.N BIOTECHNOLOGY RESEARCH AND INFORMATION NETWORK AG, priority 2016, published 2019).
Values after ≈ are worked out from the molar mass of the structure shown. Where two headings read alike, the source gives them in different places.

Columns and labels:
Pseudomonas aeruginosa = assay: Combination of substances with perillic acid: reduction of the MIC of perillic acid; format: cell-based; settings: test compound combined with perillic acid; experiments as in Example 1
Experimental: (§1) All experiments were done in 96-well plates in a final volume of 200 μL. Test solutions of the investigated compounds were prepared in 25 mM buffered water. The procedure was conducted as following: 4 μL of the particular stock solution were mixed with 196 μL culture medium containing a defined inoculum of the respective target strain. Sterile controls (not inoculated) and growth controls (buffer instead of compound added) were performed. All compound concentrations were tested in triplicate for several times. The following contamination germs were examined: Escherichia coli ATCC 8739, Pseudomonas aeruginosa ATCC 9027, Stapyhlococcus aureus ATCC®6538, Bacillus subtilis subsp. spizizenii ATCC®6633, Candida albicans ATCC®10231 and Aspergillus brasiliensis ATCC®16404. The strains were cultivated either in Mueller-Hinton II Bouillon (Escherichia coli, Pseudomonas aeruginosa, Staphylococcus aureus), in yeast peptone dextrose (Bacillus subtilis, Candida albicans) or in potato dextrose medium (Aspergillus brasiliensis). All culture media were buffered with 25 mM MES-buffer. For compound testing, the plates were incubated at 37° C. for Escherichia coli, Pseudomonas aeruginosa and Staphylococcus aureus, at 28° C. for Bacillus subtilis and Candida albicans, and at 25° C. for Aspergillus brasiliensis. Plates were evaluated after 24 h and 72 h, respectively. The minimal inhibitory concentration (MIC) is defined as the concentration where no microbial growth was observed after 24 h and 72 h incubation at the specified temperature.
(§2) Activity of perillic acid was comparably low against Gram-negative bacteria. It was thus tested whether the respective MIC could be reduced by combination of perillic acid with selected substances.
(§3) Experiments were performed as described for Example 1 above. A reduction factor was determined, expressing the reduction of the MIC of perillic acid that was achievable by combination with the combination partner. For example, a reduction factor of 2 means that the MIC of perillic acid was reduced by a factor of 2 by combination of perillic acid with the respective activity enhancing substance.

Escherichia coli = assay: as above; format: cell-based; settings: test compound combined with perillic acid; experiments as in Example 1
Experimental: as §1, §2, §3

[1] = test system: Escherichia coli, Pseudomonas aeruginosa, Stapyhlococcus aureus, Candida albicans and Aspergillus brasiliensis; assay: Conservation efficacy test according to DIN EN ISO 11930 in cosmetic formulation, all five test strains; format: cell-based; settings: cosmetic formulation (oil-water-emulsion), day 0 to day 28
Experimental: The composition of the formulations was in general as follows (ingredient amounts according to the FDA-code):
In order to confirm the activity against Gram-positive and Gram-negative bacteria, yeasts and moulds, conservation efficacy tests were performed according to DIN EN ISO 11930. The following classical contamination germs were examined: Escherichia coli (Ec in FIGS. 1 and 2) ATCC®8739, Pseudomonas aeruginosa (Pa in FIGS. 1 and 2) ATCC®9027, Stapyhlococcus aureus (Sa in FIGS. 1 and 2) ATCC®6538, Candida albicans (Ca in FIGS. 1 and 2) ATCC®10231 and Aspergillus brasiliensis (Ab in FIGS. 1 and 2) ATCC®16404. Media composition, incubation conditions and dilution procedures were all conducted according to the guidelines.
Data are presented as line graphs. […] The tested contamination germs are identified by different symbols as indicated in the diagrams with the following abbreviations: […]

[2] = test system: Escherichia coli ATCC 8739; assay: Minimal inhibition concentration (MIC), microdilution method adapted from DIN EN ISO 20776-1:2006; format: cell-based; settings: for MIC: Escherichia coli
Excerpt: (§4) The antimicrobial activity of different substances was examined and compared to perillic acid in vitro using the microdilution method adapted from DIN EN ISO 20776-1:2006. Besides perillic acid and its sodium salt, other organic acids like levulinic acid, p-anisic acid, benzoic acid and sorbic acid as well as alkane-1,2-diols such as hexane-1,2-diol, octane-1,2-diol and decane-1,2-diol were studied. Additionally, the commonly used preservatives 2-phenoxyethanol, 2-phenylethanol and benzyl alcohol were investigated.
as §1
(§5) MIC-values are given according to the following letter code.

[3] = test system: Candida albicans ATCC®10231; assay: Minimal inhibition concentration (MIC), microdilution method; format: cell-based; settings: for MIC: Candida albicans
Excerpt: as §4, §1, §5

[4] = test system: Pseudomonas aeruginosa ATCC 9027; assay: as above; format: cell-based; settings: Mueller-Hinton II Bouillon, 25 mM MES-buffer, 37° C., no growth after 24 h and 72 h; for MIC: Pseudomonas aeruginosa, ATCC9027, read-out: MIC [A to D] Pseudomonas aeruginosa
Excerpt: as §4, §1, §5

[5] = test system: Aspergillus brasiliensis ATCC®16404; assay: as above; format: cell-based; settings: potato dextrose medium, 25 mM MES-buffer, 25° C., no growth after 24 h and 72 h; for MIC: Aspergillus brasiliensis, ATCC16404, read-out: MIC [A to D] Aspergillus brasiliensis
Excerpt: as §4, §1, §5

[6] = test system: Bacillus subtilis subsp. spizizenii ATCC®6633; assay: as above; format: cell-based; settings: for MIC: Bacillus subtilis
Excerpt: as §4, §1, §5

[7] = test system: Stapyhlococcus aureus ATCC®6538; assay: as above; format: cell-based, Staphylococcus aureus; settings: Mueller-Hinton II Bouillon, 25 mM MES-buffer, 37° C., no growth after 24 h and 72 h; for MIC: Staphylococcus aureus, ATCC6538, read-out: MIC [A to D] Staphylococcus aureus
Excerpt: as §4, §1, §5

[8] = ATCC8739, Mueller-Hinton II Bouillon, 25 mM MES-buffer, 37° C., no growth after 24 h and 72 h, read-out: MIC [A to D] Escherichia coli
[9] = yeast peptone dextrose, 25 mM MES-buffer, 28° C., no growth after 24 h and 72 h
[10] = ATCC6633, yeast peptone dextrose, 25 mM MES-buffer, 28° C., no growth after 24 h and 72 h, read-out: MIC [A to D] Bacillus subtilis
[11] = Mueller-Hinton II Bouillon, 25 mM MES-buffer, 37° C., no growth after 24 h and 72 h
[12] = ATCC10231, yeast peptone dextrose, 25 mM MES-buffer, 28° C., no growth after 24 h and 72 h, read-out: MIC [A to D] Candida albicans

Reduction factor (reduction of the MIC of perillic acid by combination with the test compound) Pseudomonas aeruginosa (Pseudomonas aeruginosa)	Reduction factor (reduction of the MIC of perillic acid by combination with the test compound) Escherichia coli (Escherichia coli)	MIC [2, 8]	MIC [A to D] Candida albicans [3, 9]	MIC [4]	MIC [5]	MIC [6, 10]	MIC [7]	MIC [A to D] Pseudomonas aeruginosa [4]	MIC [A to D] Aspergillus brasiliensis [5]	MIC [A to D] Staphylococcus aureus [7]	MIC [A to D] Escherichia coli [2, 11]	MIC [A to D] Bacillus subtilis [6, 9]	MIC [3, 12]	Structure (SMILES)	criteria according to the guidelines for an adequate conservation (all five test strains) [1]	MIC ([2]; ATCC8739, read-out: MIC [A to D] Escherichia coli)	MIC ([3]; ATCC10231, read-out: MIC [A to D] Candida albicans)	MIC ([6]; ATCC6633, read-out: MIC [A to D] Bacillus subtilis)
40	200	1000 to 5000 µg/mL (≈ 8.61 to 43.1 mM)	A (MIC>1% (w/v))	1000 to 5000 µg/mL (≈ 8.61 to 43.1 mM)	1000 to 5000 µg/mL (≈ 8.61 to 43.1 mM)	5000 to 10000 µg/mL (≈ 43.1 to 86.1 mM)	1000 to 5000 µg/mL (≈ 8.61 to 43.1 mM)	–	–	–	–	–	–	CC(=O)CCC(=O)O [Levulinic acid]	does not fulfill the criteria	–	–	–
–	–	–	D (MIC<0.1% (w/v))	–	–	–	–	B (MIC=0.5-1% (w/v))	D (MIC<0.1% (w/v))	D (MIC<0.1% (w/v))	C (MIC=0.1-0.5% (w/v))	D (MIC<0.1% (w/v))	–	C=C(C)[C@H]1CC=C(C(=O)O)CC1 [R-Perillic acid]	–	–	–	–
–	–	–	D (MIC<0.1% (w/v))	–	–	–	–	B (MIC=0.5-1% (w/v))	D (MIC<0.1% (w/v))	D (MIC<0.1% (w/v))	C (MIC=0.1-0.5% (w/v))	D (MIC<0.1% (w/v))	–	C=C(C)[C@@H]1CC=C(C(=O)O)CC1 [S-Perillic acid]	–	–	–	–
80	40	–	–	–	1000 to 5000 µg/mL (≈ 7.24 to 36.2 mM)	–	–	D (MIC<0.1% (w/v))	–	D (MIC<0.1% (w/v))	D (MIC<0.1% (w/v))	D (MIC<0.1% (w/v))	1000 to 5000 µg/mL (≈ 7.24 to 36.2 mM)	O=C(O)c1ccccc1O [Salicylic acid]	–	–	–	–
–	–	–	D (MIC<0.1% (w/v))	–	–	–	–	B (MIC=0.5-1% (w/v))	D (MIC<0.1% (w/v))	D (MIC<0.1% (w/v))	C (MIC=0.1-0.5% (w/v))	D (MIC<0.1% (w/v))	–	C=C(C)C1CC=C(C(=O)[O-])CC1.[Na+] (stereo not shown) [Sodium perillate]	–	–	–	–
–	–	1000 to 5000 µg/mL (≈ 6.57 to 32.9 mM)	–	1000 to 5000 µg/mL (≈ 6.57 to 32.9 mM)	1000 to 5000 µg/mL (≈ 6.57 to 32.9 mM)	1000 to 5000 µg/mL (≈ 6.57 to 32.9 mM)	1000 to 5000 µg/mL (≈ 6.57 to 32.9 mM)	–	–	–	–	–	5000 to 10000 µg/mL (≈ 32.9 to 65.7 mM)	COc1ccc(C(=O)O)cc1 [p-Anisic acid]	–	–	–	–

Structure (SMILES)	Reduction factor (reduction of the MIC of perillic acid by combination with the test compound) Pseudomonas aeruginosa (Pseudomonas aeruginosa)	Reduction factor (reduction of the MIC of perillic acid by combination with the test compound) Escherichia coli (Escherichia coli)	MIC [2, 8]	MIC [A to D] Candida albicans [3, 9]	MIC [4]	MIC [5]	MIC [6, 10]	MIC [7]	MIC [A to D] Pseudomonas aeruginosa [4]	MIC [A to D] Aspergillus brasiliensis [5]	MIC [A to D] Staphylococcus aureus [7]	MIC [A to D] Escherichia coli [2, 11]	MIC [A to D] Bacillus subtilis [6, 9]	MIC [3, 12]	criteria according to the guidelines for an adequate conservation (all five test strains) [1]	MIC ([2]; ATCC8739, read-out: MIC [A to D] Escherichia coli)	MIC ([3]; ATCC10231, read-out: MIC [A to D] Candida albicans)	MIC ([6]; ATCC6633, read-out: MIC [A to D] Bacillus subtilis)
C/C=C/C=C/C(=O)[O-].[K+] [Potassium sorbate]	40	200	–	–	–	–	–	–	A (MIC>1% (w/v))	A (MIC>1% (w/v))	A (MIC>1% (w/v))	–	–	–	–	5000 to 10000 µg/mL	5000 to 10000 µg/mL	1000 to 5000 µg/mL
O=C([O-])c1ccccc1.[Na+] [Sodium benzoate]	–	–	–	C (MIC=0.1-0.5% (w/v))	–	–	–	–	B (MIC=0.5-1% (w/v))	A (MIC>1% (w/v))	B (MIC=0.5-1% (w/v))	B (MIC=0.5-1% (w/v))	D (MIC<0.1% (w/v))	–	–	–	–	–
